In brackets after ≈: the same amount, converted by molar mass. Several values for one entry are separate records, joined by “and”; a condition that tells them apart may be missing. Equal values may be shown once.
Conditions: buffer; pH 7.4; 6.0 h; 150.0 µM

Structure (SMILES)	solubility kinetic
Cc1noc(-c2cn(C3CCN(C(=O)c4ccc(OC(F)(F)F)cc4)CC3)nn2)n1	37.9 µg/mL (≈ 89.7 µM)
CCOC(=O)c1ccnc2cc(C(OCCN3CCCCC3)c3ccccc3Cl)sc12 (centres undefined)	56.3 µg/mL (≈ 123 µM)
Cc1cnc(N2CCC(C(N)=O)CC2)nc1-c1cccc(N(C)C)c1	> 50 µg/mL
COc1cccc(NS(=O)(=O)c2ccc(C)cc2)c1C(=O)Nc1nc(-c2ccccc2)cs1	< 1 µg/mL
COc1cccc(C(=O)Nc2ccc3oc(-c4ccc5ccccc5c4)nc3c2)c1	< 1 µg/mL
c1ccc(Nc2cc(-c3ccoc3)ncn2)cc1	16.2 µg/mL (≈ 68.3 µM)
Cc1ccc(S(=O)(=O)Nc2cccc(C(=O)Nc3nc(-c4ccccc4)cs3)c2Cl)cc1	< 1 µg/mL
COc1ccc2nc(C)cc(Nc3ccc(Cl)c(Cl)c3)c2c1	< 1 µg/mL
CCCCCCOc1ccc(OC(=O)c2ccncc2)cc1	< 1 µg/mL
Cc1cc(SCC(=O)c2ccccc2)n2ncc(-c3ccccc3)c2n1	< 1 µg/mL
CCOC(=O)c1c[nH]c2c3c(ccc2c1=O)CCCC3	34 µg/mL (≈ 125 µM)
O=C(O)CCC(=O)Nc1nc(-c2ccccc2)cs1	> 41 µg/mL
Cc1cc(C)nc(N2CCCC(C(=O)NCCc3ccc(F)cc3)C2)n1 (centres undefined)	2.77 µg/mL (≈ 7.77 µM)
Cc1ccnc(NC(=S)N2CCN(c3ccc(N)cc3)CC2)c1	> 48 µg/mL
c1ccc(Nc2cc3c(cn2)CN(Cc2ccc4[nH]ccc4c2)CCN3)cc1	30.6 µg/mL (≈ 82.8 µM)
O=C(O)Cc1ccc2oc(-c3ccc(NC(=O)/C=C/c4ccc(Br)cc4)c(F)c3)nc2c1	< 1 µg/mL
Cc1ccc(NC2=C(c3ccc(C(F)(F)F)cc3)C(=O)c3ccccc32)cc1C	< 1 µg/mL
O=C(Nc1nc(-c2ccccc2)cs1)c1ccncc1NS(=O)(=O)c1c(F)cc(F)cc1F	58 µg/mL (≈ 118 µM)
O=C(c1ccc2c(c1)ncn2-c1cccc(C(F)(F)F)c1)N1CCCCC1	> 55 µg/mL
CCCCn1cnc2cc(NC(=O)c3cc(OC)c(OC)c(OC)c3)ccc21	48.1 µg/mL (≈ 125 µM)
CN=C1CN=C(c2ccc[nH]2)c2cc(Cl)ccc2N1	10.8 µg/mL and 28.3 µg/mL
Cc1nn(CC(=O)NCCCN2CCC(N3CCCCC3)CC2)c(=O)c2cc(-c3ccccc3)nn12	> 73 µg/mL
CC(=O)Nc1cc(-c2nc(Nc3ccc(F)c(F)c3)c3ccccc3n2)ccn1	< 1 µg/mL
COc1cc(N2CCC(N3CCN(C)CC3)CC2)ccc1Nc1ncc(Cl)c(Nc2ccccc2P(C)(C)=O)n1	> 86 µg/mL
Cc1ccccc1C(=O)N1CCc2cc(N3CCC(NC(=O)Cc4ccccc4)C3)ccc21 (centres undefined)	5.59 µg/mL (≈ 12.7 µM)

Structure (SMILES)	solubility kinetic
Nc1ncccc1-c1nc2ccc(-c3ccccc3)nc2n1-c1ccc(C2(N)CCC2)cc1	> 64 µg/mL
CCN1CCN(c2ncc3c(n2)CCN(Cc2cc(Br)cs2)C3)CC1	37.1 µg/mL (≈ 88 µM)
CC(C)c1ccccc1-c1ncc(F)c(NCc2ccc(-n3ccnn3)cc2)n1	2.13 µg/mL (≈ 5.49 µM)
NC1CCN(C(=O)C2CCCN(c3nc(-c4ccccc4)nc4c3CCC4)C2)CC1 (centres undefined)	> 40 µg/mL
COC(=O)CNC(=O)c1nc(-c2ccc(Cl)cc2Cl)c2cnccn12	14.2 µg/mL (≈ 37.6 µM)
CCN1C(=O)c2ccccc2S(=O)c2ccc(NC(=O)Cc3ccc(OC)cc3)cc21 (centres undefined)	6.41 µg/mL (≈ 14.7 µM)
Cc1c(C)n(Cc2ccc(-c3ccccc3C(=O)O)cc2)c2ccc(C(=O)N[C@@H](C)c3ccc([N+](=O)[O-])cc3)cc12	44 µg/mL (≈ 80.3 µM)
O=C1Nc2ccc(Cl)cc2/C1=C\c1cc(Cl)c(O)c(Cl)c1	19 µg/mL (≈ 55.8 µM)
COc1cc2c(C(=O)N3CCN(c4cccc(C(F)(F)F)c4)CC3)cn(CC(C)C)c(=O)c2cc1OC	4.92 µg/mL (≈ 9.5 µM)
CCOc1ccc(CCNC(=O)c2cc3ccccc3n2C)cc1OCC	1.63 µg/mL (≈ 4.44 µM)
O=C(CNC12CC3CC(CC(C3)C1)C2)c1ccc(Cl)cc1	34.6 µg/mL (≈ 114 µM)
CC(C)C(=O)N1CCc2ccc(OCc3nc(C(=O)N4CCCC4)co3)cc2C1c1cccc(F)c1 (centres undefined)	32.9 µg/mL (≈ 66.9 µM)
COc1ccc(C)cc1NS(=O)(=O)c1ccc(-c2cnc(C3CC3)o2)cc1	< 1 µg/mL
COCCNC(=O)c1ccc(-c2ccc(N3CCCCC3)nc2)cc1	4.58 µg/mL (≈ 13.5 µM)
CCOc1ccc(CCNC(=O)c2cc3sccc3n2C(C)C)cc1OCC	1.62 µg/mL (≈ 4.05 µM)
CCOc1ccccc1N1CC(c2nc3ccccc3n2CCOc2ccc(C(C)(C)C)cc2)CC1=O (centres undefined)	< 1 µg/mL
OC1(CN2CCN(c3ccc(F)c(Cl)c3)CC2)CCCNC1 (centres undefined)	> 48 µg/mL
CCn1c(C)c(C(C)=O)c(C)c1C(=O)Nc1cccc([S+](=O)([O-])N(C)C)c1	43.4 µg/mL (≈ 111 µM)
O=C(O)c1ccc(N2C(=O)/C(=C/c3ccc(-c4ccc([N+](=O)[O-])cc4)o3)C=C2c2ccccc2)cc1	31.4 µg/mL (≈ 65.6 µM)
O=S(=O)(Nc1ccc2ccccc2c1)c1ccc(NCc2cccc(Cl)c2O)cc1	< 1 µg/mL
CCCN1CNc2c(c(=O)[nH]c(=S)n2CCc2ccc(OC)c(OC)c2)C1	> 58 µg/mL
CC(=O)N1CCc2cc(S(=O)(=O)NCCC3=CCCCC3)ccc21	4.37 µg/mL (≈ 12.6 µM)
Cc1ccc2c(c1)c(=O)c1ccccc1n2CCCC(=O)Nc1cc(Cl)ccc1C	< 1 µg/mL
Cc1cc(C(=O)Nc2nnc(C3CCCCC3)s2)cs1	< 1 µg/mL
O=C(CCCN1CCC(O)(c2ccc(Cl)cc2)CC1)c1ccc(F)cc1	6.42 µg/mL (≈ 17.1 µM)

Structure (SMILES)	solubility kinetic
O=C(O)c1ccc(O)c2ncc(N3CCCN(CCc4cccc5ccccc45)CC3)cc12	21.4 µg/mL (≈ 48.4 µM)
Cc1ccccc1C(=O)n1ccc2cc(-c3nc(NC(=O)Cc4ccc5c(c4)OCO5)sc3C)ccc21	< 1 µg/mL
O=C(Nc1nc(-c2ccccc2)cs1)c1ccccc1-n1cnnn1	< 1 µg/mL
O=S(=O)(Nc1nccs1)c1ccc(NCc2cc(Cl)ccc2O)cc1	37.2 µg/mL (≈ 94 µM)
O=C1CCCC2=C1C(c1[nH]ncc1Cl)N=C(Nc1nc3cc([S+](=O)([O-])N4CCCC4)ccc3o1)N2 (centres undefined)	36.2 µg/mL (≈ 70.2 µM)
c1ccc(-c2cc(Nc3nc(-c4ccncc4)nc4ccccc34)n[nH]2)cc1	< 1 µg/mL
CS(=O)(=O)CCNCc1ccc(-c2ccc3ncnc(Nc4ccc(OCc5cccc(F)c5)c(Cl)c4)c3c2)o1	< 1 µg/mL
COc1cccc(NC(=O)c2cccc3c(=O)c4c([nH]c23)CCCC4)c1	< 1 µg/mL
Ic1ccccc1CNC1C2CCN(CC2)C1C(c1ccccc1)c1ccccc1 (centres undefined)	> 75 µg/mL
Cc1cc(-c2nnc3n2CCCCC3)c(C)n1-c1ccc(C#N)cc1	> 49 µg/mL
COc1ccc(NS(=O)(=O)c2ccc(C)cc2)c(C(=O)Nc2nc(-c3ccccc3)cs2)c1	< 1 µg/mL
O=C(N/N=C/c1ccc(O)c(O)c1)c1cc2ccccc2cc1O	18.2 µg/mL (≈ 56.5 µM)
CC(C)CC(=O)Nc1n[nH]c2c1CN(C(=O)C1CCN(C)CC1)C2(C)C	> 53 µg/mL
Cc1ccc(NC(=O)N(Cc2cn(C)c3ccccc23)C2CCCCC2)cc1C	2.37 µg/mL (≈ 6.08 µM)
CCn1cc(CNC(=O)c2cc(-c3ccc(C)cc3)nc3ccc(Br)cc23)c(C)n1	< 1 µg/mL
Cc1cccc2c1NC(=O)/C2=C/c1cc(Cl)c(O)c(Cl)c1	10.1 µg/mL (≈ 31.5 µM)
COC(=O)c1ccc2c(C(=Nc3ccc(N(C)C(=O)CN4CCN(C)CC4)cc3)c3ccccc3)c(O)[nH]c2c1	< 1 µg/mL
COc1ccc(NC(=O)c2[nH]c(C)c(C(C)=O)c2C)cc1[S+](=O)([O-])Nc1ccccc1C#N	55.6 µg/mL (≈ 119 µM)
NC(=O)C1CCN(c2cc(-c3ccc4c(c3)OCCCO4)ncn2)CC1	> 52 µg/mL
CCOc1ccc(N2CC(c3nc(-c4ccccn4)no3)CC2=O)cc1 (centres undefined)	> 35 µg/mL
NC(=O)C1CCN(c2nc(-c3ccc(OC(F)(F)F)cc3)cs2)CC1	< 1 µg/mL
CCCCOC(=O)c1ccnc2cc(C(OCCN3CCCCC3)c3ccccc3Cl)sc12 (centres undefined)	< 1 µg/mL
CCOC(=O)c1ccc(-c2ccc3ncnc(NCCc4cnc[nH]4)c3c2)o1	26.2 µg/mL (≈ 69.4 µM)
CNc1oc(-c2cccc3ccccc23)nc1C(=O)OC	< 1 µg/mL
CCOC(=O)C1=C(C)NC(=O)CC1C(=O)Nc1cc(Cl)cc(Cl)c1 (centres undefined)	22.4 µg/mL (≈ 60.2 µM)

Structure (SMILES)	solubility kinetic
Cc1noc(C)c1[S+](=O)([O-])N1CCC2(CC1)CC(c1cccc(C(F)(F)F)c1)=NO2	< 1 µg/mL
Cc1ccc2c(c1)/C(=C\c1cc(Cl)c(O)c(Cl)c1)C(=O)N2	15.4 µg/mL (≈ 48.1 µM)
COc1ccc(C(=O)N2CCCC(c3nn(-c4ccc(OC)cc4)c(=O)[nH]3)C2)cc1 (centres undefined)	> 60 µg/mL
Cc1csc2c1c(=O)n(O)c(=O)n2Cc1ccccc1	> 43 µg/mL
CC[C@@](C)(Nc1ccnc(-c2c[nH]c3ncccc23)n1)C(=O)NCC(F)(F)F	> 58 µg/mL
Cc1sc2ncnc(Sc3nnnn3-c3ccccc3)c2c1-c1ccccc1	0.29 µg/mL (≈ 0.72 µM)
CC(=O)N1CCN(c2ccc(OCc3nn(C)c(C)c3-c3cccc4c(CCCOc5cc(C)c(Cl)c(C)c5)c(C(=O)O)n(Cc5cccnc5)c34)cc2)CC1	> 100 µg/mL
CCn1c(C(=O)NCCc2ccc(OC)cc2)cc2sccc21	2.08 µg/mL (≈ 6.34 µM)
Cc1nnc2c3ccccc3nc(N3CCN(c4ccccc4)CC3)n12	< 1 µg/mL
O=c1[nH]c(C2CCCN(CC3CCCCC3)C2)nn1-c1ccc(Cl)cc1 (centres undefined)	< 1 µg/mL
COC(=O)[C@H](NC(=O)c1cc(-c2ccccc2)nc2ccccc12)c1ccccc1	< 1 µg/mL
COc1cccc(CNC(=O)c2ccc(N3CCCC3)c(NC(=O)Nc3ccccc3F)c2)c1	< 1 µg/mL
CCCCCCCc1c(C)nc(N2CCOCC2)[nH]c1=O	4.18 µg/mL (≈ 14.3 µM)
COc1ccccc1N1CCN(CCN(C(=O)c2ccc(I)cc2)c2ccccn2)CC1	53.8 µg/mL (≈ 99.1 µM)
O=C1CCCC2=C1C1(CCCC1)N=C(Nc1nc3ccccc3o1)N2	< 1 µg/mL
O=C(NCCCNc1nc(Nc2cccc(NC(=O)N3CCCC3)c2)ncc1I)c1cccs1	14.2 µg/mL (≈ 24 µM)
COc1cc2c(cc1-c1c(C)noc1C)ncc1[nH]c(=O)n([C@H](C)c3ccccn3)c12	> 61 µg/mL
CCOc1ccc(/C=C/c2nc3ccccc3n2S(=O)(=O)c2ccc(Br)cc2)cc1	0.131 µg/mL (≈ 0.271 µM)
CCOc1ccccc1N(CC(=O)Nc1cc(OC)ccc1OC)S(=O)(=O)c1ccccc1	< 1 µg/mL
O=C1Nc2cccc(Cl)c2/C1=C\c1cc(Cl)c(O)c(Cl)c1	< 1 µg/mL
Clc1ccccc1-c1nnc2sc(-c3ccc4c(c3)OCO4)nn12	< 1 µg/mL
O=C(Nc1nc(-c2ccccc2)cs1)c1ccncc1NS(=O)(=O)c1ccccc1	21.2 µg/mL (≈ 48.5 µM)
Fc1cc(Nc2nc(-c3ccncc3)nc3ccccc23)ccc1OC(F)(F)F	< 1 µg/mL
O=C(Nc1ncc(Cc2cccc(C(F)(F)F)c2)s1)c1ccc(-c2cccc([N+](=O)[O-])c2)o1	< 1 µg/mL
